{
  "source": "patent US8026221B2",
  "about": "“Method, composition and kit for antigenic binding of norwalk-like viruses” (Children's Hospital Medical Center, priority 2002, dated 2011)",
  "test_system": "NV",
  "assay": "Binding of synthetic histo-blood antigen with NLV after glycosidase digestion",
  "set-up": "species or system Norwalk Virus",
  "settings": "after digestion with α-N-acetylgalactosaminidase",
  "text": "Thus, the corresponding NLV could not be bound.",
  "data": [
    {"substance": "GalNAc-α1→3 (Fuc-α1→2) Gal β-O-space) nBSA [A trisaccharide-BSA]", "values": [
      {"measurement": "Binding with NLV after removal of the antigenic determinant sugar epitope", "value": "losses binding"}
    ]}
  ]
}
